# Patent publication US7544668B2, “Saponins derived from Ilex pubescens and method of purifying the same” (priority 2006, dated 2009)
# Columns and labels:
# [1] = tested on: acetic acid induced writhing response; assay: abdominal writhing test induced by acetic acid in mice; format: in vivo, ICR mice
# Experimental: Animal Material. Male and female ICR mice weighing 18-24 g and male SD rats weighing 150-210 g were purchased from the Laboratory Animal Services Center, the Chinese University of Hong Kong, Hong Kong. The animals were acclimated for more than 1 week under 12 hours light and 12 hours dark cycle at room temperature of 22±1° C. Chow diet and water were provided ad libitum. Animal care and treatment procedures conformed to the Institutional Guidelines and Animal Ordinance (Department of Health, Hong Kong Special Administrative Region.) Mice and rats were fasted for 16 hours and 48 hours, respectively, before experiment. Mode of Administration. The PSF solutions for anti-inflammatory and analgesic experiments were prepared by dissolving the product in 30% propanediol solution (for i.p. injection) and 0.5% (w/v) carboxymethylcellulose sodium salt (CMC—Na) (for orally administration), respectively. The reference drug indomethacin for anti-inflammatory test was dissolved in a vehicle that consisted of 10% peanut oil, 10% Tween-80 and 80% distilled water. Rotundine was suspended in 0.5% (w/v) CMC—Na salt and used as reference drug for anti-nociceptive experiment. The abdominal writhing test induced by chemical stimulation of acetic acid was performed in mice as originally described by Siegmund^2. […] Rotundine was orally administrated 1 hour before acetic acid injection. After intraperitoneal injection of 0.2 ml acetic acid (0.8% w/v) in physiological saline (0.9% w/v NaCl), animals were isolated for observation. The numbers of abdominal writhing syndrome/events, which consisted of the contraction of the abdominal area with extension of hind legs, were recorded during a 15 minutes period in each animal.
# [2] = tested on: radiant heat stimulation-induced tail flick reaction; assay: tail flick test, radiant heat stimulation in mice; format: in vivo, ICR mice; details: for Tail flick reaction time: 50 mg/kg oral
# Experimental: Animal Material. Male and female ICR mice weighing 18-24 g and male SD rats weighing 150-210 g were purchased from the Laboratory Animal Services Center, the Chinese University of Hong Kong, Hong Kong. The animals were acclimated for more than 1 week under 12 hours light and 12 hours dark cycle at room temperature of 22±1° C. Chow diet and water were provided ad libitum. Animal care and treatment procedures conformed to the Institutional Guidelines and Animal Ordinance (Department of Health, Hong Kong Special Administrative Region.) Mice and rats were fasted for 16 hours and 48 hours, respectively, before experiment.
# Mode of Administration. The PSF solutions for anti-inflammatory and analgesic experiments were prepared by dissolving the product in 30% propanediol solution (for i.p. injection) and 0.5% (w/v) carboxymethylcellulose sodium salt (CMC—Na) (for orally administration), respectively. The reference drug indomethacin for anti-inflammatory test was dissolved in a vehicle that consisted of 10% peanut oil, 10% Tween-80 and 80% distilled water. Rotundine was suspended in 0.5% (w/v) CMC—Na salt and used as reference drug for anti-nociceptive experiment.
# The anti-nociceptive effects of PSF and the reference drug, expressed as the time required for mice tail flick after exposure to a source of radiant heat, were evaluated according to the description of d'Amour^3. […] The tail-flick response was elicited by applying radiant heat to the point ⅓ of length away from the tip of the tail. The apparatus was arranged so that when the operator turned on the lamp a timer was activated. When the mice felt pain and flicked its tail, light fell on the photocell such that the timer was automatically stopped. The intensity of the heat stimulus in the tail-flick test was adjusted so that the animal flicked its tail within 3 to 6 seconds. A 12 seconds cut-off time was set in order to prevent tail tissues from damage. Before the experiment, the heat stimulation latency of all animals was tested, and those with response time to heat stimulation from […] were excluded. The tail-flick response was measured at 0.5, 1, and 2 hours after oral administration of PSF (200, 100 and 50 mg/kg body weight) or rotundine (50 mg/kg, as reference drug) or vehicle.
# [3] = tested on: histamine-induced paw edema; assay: histamine induced paw edema in rats; format: in vivo, SD rats; details: 10 mg/kg oral
# Experimental: Animal Material. Male and female ICR mice weighing 18-24 g and male SD rats weighing 150-210 g were purchased from the Laboratory Animal Services Center, the Chinese University of Hong Kong, Hong Kong. The animals were acclimated for more than 1 week under 12 hours light and 12 hours dark cycle at room temperature of 22±1° C. Chow diet and water were provided ad libitum. Animal care and treatment procedures conformed to the Institutional Guidelines and Animal Ordinance (Department of Health, Hong Kong Special Administrative Region.) Mice and rats were fasted for 16 hours and 48 hours, respectively, before experiment. Mode of Administration. The PSF solutions for anti-inflammatory and analgesic experiments were prepared by dissolving the product in 30% propanediol solution (for i.p. injection) and 0.5% (w/v) carboxymethylcellulose sodium salt (CMC—Na) (for orally administration), respectively. The reference drug indomethacin for anti-inflammatory test was dissolved in a vehicle that consisted of 10% peanut oil, 10% Tween-80 and 80% distilled water. Rotundine was suspended in 0.5% (w/v) CMC—Na salt and used as reference drug for anti-nociceptive experiment. The volumes (ml) of both hind paws were measured using a plethysmometer (Plethysmometer 7150, UGO Basile, Italy) at 1 hour before the induction and 1, 2, 3, 4, 6, and 8 hours after the induction. The increased volumes (paw edema) of the right hind paws of rats were calculated by the following equation: the increased rate (%)=(B−A)/A×100, where A and B represent the paw volumes before and at different time points after the induction, respectively. The acute inflammation in the hind paws was induced by the subcutaneous injection of 0.05 ml 1% prepared solutions of histamine into right hind paws of rats. The left hind paws were used as controls. Administration of PSF (12.5 mg/kg, 25 mg/kg, 50 mg/kg, 100 mg/kg body weight, i.p. injection), or of the vehicle (30% propanediol) was performed at 10 minutes prior to carrageenan injection. Indomethacin was orally administrated at 1 hour before the induction. The volumes of the injected and control paws were measured at different time points designed from 0.5 to 4 hours after injection of histamine. The increased rates in paw volume were calculated in the same way as in carrageenan.
# [4] = tested on: carrageenan-induced paw edema; assay: carrageenan induced paw edema in rats; format: in vivo, SD rats; details: 10 mg/kg oral
# Experimental: Animal Material. Male and female ICR mice weighing 18-24 g and male SD rats weighing 150-210 g were purchased from the Laboratory Animal Services Center, the Chinese University of Hong Kong, Hong Kong. The animals were acclimated for more than 1 week under 12 hours light and 12 hours dark cycle at room temperature of 22±1° C. Chow diet and water were provided ad libitum. Animal care and treatment procedures conformed to the Institutional Guidelines and Animal Ordinance (Department of Health, Hong Kong Special Administrative Region.) Mice and rats were fasted for 16 hours and 48 hours, respectively, before experiment. Mode of Administration. The PSF solutions for anti-inflammatory and analgesic experiments were prepared by dissolving the product in 30% propanediol solution (for i.p. injection) and 0.5% (w/v) carboxymethylcellulose sodium salt (CMC—Na) (for orally administration), respectively. The reference drug indomethacin for anti-inflammatory test was dissolved in a vehicle that consisted of 10% peanut oil, 10% Tween-80 and 80% distilled water. Rotundine was suspended in 0.5% (w/v) CMC—Na salt and used as reference drug for anti-nociceptive experiment. The experiment was conducted as previously described by Winter^1. At the induction, each rat was injected with 0.1 ml freshly prepared carrageenan (1% w/v) in physiological saline (0.9% w/v NaCl) into subplantar tissues of the right hind paw. The left hind paws without injection were used as controls. PSF was i.p. administrated 10 minutes prior to carrageenan injection. Control animals received an appropriate volume of 30% propanediol. Indomethacin was orally administrated 1 hr before the carrageenan injection as a reference drug. The volumes (ml) of both hind paws were measured using a plethysmometer (Plethysmometer 7150, UGO Basile, Italy) at 1 hour before the induction and 1, 2, 3, 4, 6, and 8 hours after the induction. The increased volumes (paw edema) of the right hind paws of rats were calculated by the following equation: the increased rate (%)=(B−A)/A×100, where A and B represent the paw volumes before and at different time points after the induction, respectively.
# [5] = oral, in comparison with vehicle-treated animals
smiles,measurement,setting,value
COc1cc2c(cc1OC)[C@@H]1Cc3ccc(OC)c(OC)c3CN1CC2 [Rotundine],Inhibition (%),[1]; 50 mg/kg oral 1 hour before acetic acid,100%
same,Writhing count,"[1]; 50 mg/kg oral 1 hour before acetic acid, 15 minutes period",0.00 ± 0.00
same,effect on number of writhing episodes of mice,[1]; [5],complete analgesia
same,Tail flick reaction time,[2]; 0.5 h after administration,7.552 ± 3.301 s
same,Tail flick reaction time,[2]; 1 h after administration,11.044 ± 1.658 s
same,Tail flick reaction time,[2]; 2 h after administration,9.813 ± 3.069 s
same,Tail flick reaction time,[2]; time 0,4.223 ± 0.458 s
same,effect on tail flick reaction time of mice,[2]; [5],prolonged the reaction time
COc1ccc2c(c1)c(CC(=O)O)c(C)n2C(=O)c1ccc(Cl)cc1 [Indomethacin],Change in paw swelling after histamine injection (%),[3]; 0.5 h after histamine,29.72 ± 10.67%
same,Change in paw swelling after histamine injection (%),[3]; 1 h after histamine,14.64 ± 9.21 %
same,Change in paw swelling after histamine injection (%),[3]; 2 h after histamine,11.51 ± 6.61 %
same,Change in paw swelling after histamine injection (%),[3]; 3 h after histamine,11.35 ± 7.35%
same,Change in paw swelling after histamine injection (%),[3]; 4 h after histamine,7.43 ± 6.05 %
same,Change in paw swelling after histamine injection (%),[3]; 6 h after histamine,4.17 ± 6.05%
same,effect on histamine-induced edema,[3]; at a later time than PSF,significant inhibitory effect
same,Changes in swelling percentage after carrageenan injection (%),[4]; 1 h after carrageenan,8.54 ± 4.97 %
same,Changes in swelling percentage after carrageenan injection (%),[4]; 2 h after carrageenan,10.80 ± 7.77 %
same,Changes in swelling percentage after carrageenan injection (%),[4]; 3 h after carrageenan,9.49 ± 6.63 %
same,Changes in swelling percentage after carrageenan injection (%),[4]; 4 h after carrageenan,13.53 ± 10.13 %
same,Changes in swelling percentage after carrageenan injection (%),[4]; 6 h after carrageenan,17.43 ± 9.21 %
same,Changes in swelling percentage after carrageenan injection (%),[4]; 8 h after carrageenan,34.70 ± 9.21%
